Assay results taken from patent publication US20250049938A1, “ANTIBODY-DRUG CONJUGATE AND USE THEREOF” (priority 2021, published 2025).
Starred links: 1 amine or outer side, 2 acyl side, 3 side chain; linkers in the order of their positions; H or OH if unused. Non-standard residues stand in square brackets, D forms with d. Residues, ends and D or L forms follow the SMILES beside them. *: point of attachment. Exatecan = CC[C@@]1(O)C(=O)OCc2c1cc1n(c2=O)Cc2c-1nc1cc(F)c(C)c3c1c2[C@@H](N*)CC3; Hexanoyl(6-maleimido) = O=C1C=CC(=O)N1CCCCCC(=O)*; NHCH2OCH2CO = O=C(COCN[*:1])[*:2]

Tested on: human colon cancer SW620 cells
Experiment: In vitro killing of human colon cancer SW620 cells (CellTiter-Glo)
Format: cell-based
Settings: FIG. 2B; 2-fold dilutions from 400 nM, 9 concentrations; culturing 4 days and 6 days
Description: Human colon cancer SW620 cells in the logarithmic growth phase were digested with pancreatin, and subsequently resuspended in a corresponding culture medium, with the density adjusted to be 2×10^4 cells/mL. The cells were seeded into a 96-well microplate at 100 μL/well, allowing for a density of 2×10^3 cells/well, and 200 μL of the culture medium was added to each of the rest wells. After culturing for 48 h at 37° C., 5% CO2, the supernatant was pipetted from the cell culture plate. The linker-drugs (04-Dxd, 07-Dxd, 08-Dxd, and 09-Dxd), HER3 ADCs (HER3-ADC04, HER3-ADC07, HER3-ADC08, and HER3-ADC09), and a monoclonal antibody control were diluted in a 2-fold gradient with the culture medium, starting from the initial concentration of 400 nM, to obtain a total of 9 concentration gradients. The diluted samples were added at 100 μL/well. After further culturing for 4 days and 6 days, color development was carried out. The cell plate was taken out and equilibrated for 15-20 min at room temperature, and subsequently 100 μL of CellTiter-Glo® Luminescent Cell Viability assay buffer (purchased from Promega) was added. The plate was shaken for 2 min on a shaker at 200 rpm, kept for 18 min in the dark, and read using an M5 microplate reader.
followed by plotting through four-parameter fitting, with the logarithm of the concentration as the abscissa and the killing rate as the ordinate.

Compound	in vitro killing effect of linker-Dxd drugs on SW620 cells
CC[C@@]1(O)C(=O)OCc2c1cc1n(c2=O)Cc2c-1nc1cc(F)c(C)c3c1c2[C@@H](NC(=O)COCNC(=O)CNC(=O)[C@H](Cc1ccccc1)NC(=O)CNC(=O)[C@H](CO)NC(=O)[C@H](CO)NC(=O)[C@H](C)NC(=O)[C@@H](NC(=O)CCCCCN1C(=O)C=CC1=O)C(C)C)CC3 [09-Dxd] ({Hexanoyl(6-maleimido)}-VASSGFG[NHCH2OCH2CO]-Exatecan)	significantly better killing effect than 04-Dxd
CC[C@@]1(O)C(=O)OCc2c1cc1n(c2=O)Cc2c-1nc1cc(F)c(C)c3c1c2[C@@H](NC(=O)COCNC(=O)CNC(=O)[C@H](Cc1ccccc1)NC(=O)CNC(=O)[C@H](C)NC(=O)[C@@H](NC(=O)CCCCCN1C(=O)C=CC1=O)C(C)C)CC3 [07-Dxd] ({Hexanoyl(6-maleimido)}-VAGFG[NHCH2OCH2CO]-Exatecan)	significantly better killing effect than 04-Dxd
CC[C@@]1(O)C(=O)OCc2c1cc1n(c2=O)Cc2c-1nc1cc(F)c(C)c3c1c2[C@@H](NC(=O)COCNC(=O)CNC(=O)[C@H](Cc1ccccc1)NC(=O)CNC(=O)[C@H](CO)NC(=O)[C@H](C)NC(=O)[C@@H](NC(=O)CCCCCN1C(=O)C=CC1=O)C(C)C)CC3 [08-Dxd] ({Hexanoyl(6-maleimido)}-VASGFG[NHCH2OCH2CO]-Exatecan)	significantly better killing effect than 04-Dxd
CC[C@@]1(O)C(=O)OCc2c1cc1n(c2=O)Cc2c-1nc1cc(F)c(C)c3c1c2[C@@H](NC(=O)COCNC(=O)CNC(=O)[C@H](Cc1ccccc1)NC(=O)CNC(=O)CNC(=O)CCCCCN1C(=O)C=CC1=O)CC3 [04-Dxd, reference compound] ({Hexanoyl(6-maleimido)}-GGFG[NHCH2OCH2CO]-Exatecan)	killing effect
